Laboratory results from patent US7504421B2, “Substituted 2-thio-3,5-dicyano-4-aryl-6-aminopyridines and their use” (priority 1999, dated 2009).
Like-named read-outs stand apart in the source and are kept apart here.

Experiments:
adenosine A2b receptor = biological target: T1, adenosine A2b receptor (Homo sapiens, UniProt P29275); assay: Intracellular cAMP (cAMP-RIA) in CHO cells transfected with cDNA for the A2b receptor, agonist mode; type: cell-based; details: for activity at 10 µM / activity at 1 µM / activity at 0.1 µM / activity at 0.01 µM / activity at 0.001 µM: read-out: Concentration of intracellular cAMP in percent; for agonistic effect on cells which express the adenosine receptor A2b (in words): summary of cAMP data
T1 sequence (P29275 1-332): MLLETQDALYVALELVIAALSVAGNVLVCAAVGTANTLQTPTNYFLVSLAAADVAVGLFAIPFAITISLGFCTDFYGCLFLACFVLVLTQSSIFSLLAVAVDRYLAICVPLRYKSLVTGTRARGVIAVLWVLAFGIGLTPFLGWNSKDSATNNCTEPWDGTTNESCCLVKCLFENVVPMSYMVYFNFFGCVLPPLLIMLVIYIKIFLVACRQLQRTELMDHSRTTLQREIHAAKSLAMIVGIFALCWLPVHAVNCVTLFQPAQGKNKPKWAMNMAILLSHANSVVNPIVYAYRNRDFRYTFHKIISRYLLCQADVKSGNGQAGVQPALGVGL
Method: (§1) Cells of the permanent line CHO (Chinese Hamster Ovary) were stably transfected with cDNA for the adenosine receptor subtypes A1, A2a, A2b and A3. Binding of the substances to the A2a or A2b receptor subtypes was determined by measuring the intracellular cAMP concentration in these cells using a conventional radioimmunological assay (cAMP-RIA, IBL GmbH, Hamburg, Germany).
(§2) In the case of the action of the substances as agonists, binding of the substances is expressed in an increase of the intracellular cAMP concentration.
(§3) In the experiments below, the intracellular cAMP concentration in CHO cells which had been transfected with cDNA for the A2b receptor was determined. What is stated is the cAMP concentration in percent in all cells in a well of a microtiter plate, based on the control value obtained without any substances acting on the cells: […]

adenosine A2a receptor = adenosine A2a receptor (Homo sapiens, UniProt P29274); assay: Intracellular cAMP (cAMP-RIA) in CHO cells transfected with cDNA for the A2a receptor, agonist mode; type: cell-based; details: for Concentration of intracellular cAMP in percent: CHO cells with A2a receptor, based on control without substance; for effect on cells with the A2a receptor (in words): summary of cAMP data
adenosine A2a receptor, sequence (P29274 whole entry): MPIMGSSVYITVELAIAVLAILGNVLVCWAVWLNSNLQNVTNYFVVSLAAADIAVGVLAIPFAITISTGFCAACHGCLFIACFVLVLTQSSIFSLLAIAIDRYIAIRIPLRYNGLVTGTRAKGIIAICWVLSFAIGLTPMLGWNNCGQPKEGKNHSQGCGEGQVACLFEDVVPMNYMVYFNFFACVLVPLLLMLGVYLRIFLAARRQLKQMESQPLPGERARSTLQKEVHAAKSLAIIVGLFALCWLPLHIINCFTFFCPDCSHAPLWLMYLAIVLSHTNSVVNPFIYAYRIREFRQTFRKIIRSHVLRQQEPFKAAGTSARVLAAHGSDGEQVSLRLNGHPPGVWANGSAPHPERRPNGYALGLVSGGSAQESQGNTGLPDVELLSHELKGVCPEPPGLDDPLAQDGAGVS
Method: as §1, §2
as §3, with “A2a” for “A2b”

[1] = test system: Langendorff heart of the rat (coronary arteries); assay: Langendorff heart of the rat: coronary perfusion pressure, left ventricular pressure, heart rate; details: isolated rat heart
Method: After opening the thoracic cage of anesthetized rats, the heart is removed quickly and introduced into a conventional Langendorff apparatus. The coronary arteries are perfused at a constant volume (10 ml/min), and the resulting perfusion pressure is recorded via an appropriate pressure sensor. In this arrangement, a decrease of the perfusion pressure corresponds to a relaxation of the coronary arteries. At the same time, the pressure which is developed by the heart during each contraction is measured via a balloon introduced into the left ventricle and a further pressure sensor. The frequency of the isolated beating heart is calculated from the number of contractions per time unit.
In this test arrangement, the following values were obtained for the coronary perfusion pressure (the stated percentage refers to the reduction of the coronary perfusion pressure in percent at the respective concentration):
At the stated concentrations, the substances tested had no effect on the pressure developed during the contraction in the left ventricle and no effect on the heart rate.

adenosine A1 receptor = biological target: T2, adenosine A1 receptor (Homo sapiens, UniProt P30542); assay: Intracellular cAMP in CHO cells transfected with cDNA for the A1 receptor after prestimulation with forskolin; type: cell-based; details: for remaining activity at 10 µM / remaining activity at 1 µM / remaining activity at 0.1 µM: CHO cells with A1 receptor, based on control prestimulated with 1 μM forskolin for 15 min (18% without forskolin), read-out: Concentration of intracellular cAMP in percent; for remaining activity at 10 µM: 10^-5 M; for remaining activity at 1 µM: 10^-6 M; for remaining activity at 0.1 µM: 10^-7 M; for receptor selectivity: adenosine A1 receptor: conclusion from cAMP data on A1, A2a, A2b cells; for agonistic effect on cells with the A1 receptor (in words): summary of cAMP data
T2 sequence (P30542 1-326): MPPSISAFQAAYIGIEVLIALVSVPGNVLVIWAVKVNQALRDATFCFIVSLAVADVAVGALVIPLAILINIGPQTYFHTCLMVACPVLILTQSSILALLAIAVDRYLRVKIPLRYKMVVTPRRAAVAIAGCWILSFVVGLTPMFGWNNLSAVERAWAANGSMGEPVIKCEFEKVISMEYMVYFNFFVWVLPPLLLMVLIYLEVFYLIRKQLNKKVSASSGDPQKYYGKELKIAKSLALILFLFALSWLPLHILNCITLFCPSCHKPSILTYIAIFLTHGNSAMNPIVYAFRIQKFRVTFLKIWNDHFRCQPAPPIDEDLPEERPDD
Method: as §1
The adenosine receptors A1 and A3 are coupled to a Gi protein, i.e. stimulation of these receptors results in an inhibition of adenylate cyclase and thus a reduction of the intracellular cAMP level. To identify A1/A3 receptor agonists, the adenylate cyclase is stimulated using forskolin. However, additional stimulation of the A1/A3 receptors inhibits adenylate cyclase, so that it is possible to detect A1/A3 receptor agonists by a comparatively low concentration of cAMP in the cell.
In the following experiments, the intracellular cAMP concentration in CHO cells transfected with the cDNA for the A1 receptor was determined.

[2] = CHO cells with A2b receptor, 10^-5 M, based on control without substance
[3] = CHO cells with A2b receptor, 10^-6 M, based on control without substance
[4] = CHO cells with A2b receptor, 10^-7 M, based on control without substance

Row | SMILES | activity at 10 µM (adenosine A2b receptor; [2]) | activity at 1 µM (adenosine A2b receptor; [3]) | activity at 0.1 µM (adenosine A2b receptor; [4]) | agonistic effect on cells which express the adenosine receptor A2b (in words) (adenosine A2b receptor) | Concentration of intracellular cAMP in percent (adenosine A2a receptor; 10^-5 M) | Concentration of intracellular cAMP in percent (adenosine A2a receptor; 10^-6 M) | Concentration of intracellular cAMP in percent (adenosine A2a receptor; 10^-7 M) | effect on cells with the A2a receptor (in words) (adenosine A2a receptor) | remaining activity at 10 µM (adenosine A1 receptor) | remaining activity at 1 µM (adenosine A1 receptor) | remaining activity at 0.1 µM (adenosine A1 receptor) | agonistic effect on cells with the A1 receptor (in words) (adenosine A1 receptor) | Reduction of the coronary perfusion pressure in percent ([1]; concentration 10^-6 g/ml) | Reduction of the coronary perfusion pressure in percent ([1]; concentration 10^-7 g/ml) | other results
1 | Cc1ccc(-c2c(C#N)c(N)nc(SCc3ccccc3)c2C#N)cc1 [A 189] | – | – | – | – | – | – | – | – | – | – | – | – | about 37% | no effect observed | –
2 | Cc1ccc(-c2c(C#N)c(N)nc(SCC(O)CO)c2C#N)cc1 (stereo not drawn) [A 198] | – | – | – | – | – | – | – | – | – | – | – | – | about 26% | no effect observed | –
3 | N#Cc1c(N)nc(SCc2ncc[nH]2)c(C#N)c1-c1ccc(O)cc1 [A 379] | – | – | – | clear agonistic effect | 291% | 235% | 218% | virtually no effect | 35% | 34% | 34% | comparably weaker effect | about 63% | about 64% | activity at 0.001 µM (adenosine A2b receptor; CHO): 870%; activity at 0.01 µM (adenosine A2b receptor; CHO): 846%; activity at 0.1 µM (adenosine A2b receptor; CHO): 861%; activity at 1 µM (adenosine A2b receptor; CHO): 936%; receptor selectivity: adenosine A2b receptor (adenosine A2b receptor; conclusion from cAMP data on A1, A2a, A2b cells): selective adenosine A2b receptor agonist; Concentration of intracellular cAMP in percent (adenosine A2a receptor; 10^-8 M): 160%; Concentration of intracellular cAMP in percent (adenosine A2a receptor; 10^-9 M): 93%
4 | N#Cc1c(N)nc(SCCO)c(C#N)c1-c1ccc(O)cc1 [Example 21, 2-Amino-6-[(2-hydroxyethyl)sulfanyl]-4-(4-hydroxyphenyl)-3,5-pyridinedicarbonitrile] | – | – | – | – | – | 117% | 143% | – | – | – | – | – | about 75% | about 40% | activity at 0.1 µM (adenosine A2b receptor; CHO): 253%; activity at 1 µM (adenosine A2b receptor; CHO): 432%; activity at 10 µM (adenosine A2b receptor; CHO): 384%

Continued, in another order:

Row | activity at 10 µM (adenosine A2b receptor; [2]) | activity at 1 µM (adenosine A2b receptor; [3]) | activity at 0.1 µM (adenosine A2b receptor; [4]) | agonistic effect on cells which express the adenosine receptor A2b (in words) (adenosine A2b receptor) | Concentration of intracellular cAMP in percent (adenosine A2a receptor; 10^-5 M) | Concentration of intracellular cAMP in percent (adenosine A2a receptor; 10^-6 M) | Concentration of intracellular cAMP in percent (adenosine A2a receptor; 10^-7 M) | effect on cells with the A2a receptor (in words) (adenosine A2a receptor) | remaining activity at 10 µM (adenosine A1 receptor) | remaining activity at 1 µM (adenosine A1 receptor) | remaining activity at 0.1 µM (adenosine A1 receptor) | agonistic effect on cells with the A1 receptor (in words) (adenosine A1 receptor) | SMILES | Reduction of the coronary perfusion pressure in percent ([1]; concentration 10^-6 g/ml) | Reduction of the coronary perfusion pressure in percent ([1]; concentration 10^-7 g/ml) | other results
5 | 900% | 947% | 837% | clear agonistic effect | 208% | 117% | 92% | virtually no effect | – | – | – | – | N#Cc1c(N)nc(SCC(N)=O)c(C#N)c1-c1ccc(O)cc1 [A 1] | – | – | –
6 | 784% | 674% | 347% | considerably weaker effect | 317% | 200% | 117% | virtually no effect | 22% | 24% | 18% | clear agonistic effect | N#Cc1c(N)nc(SCCO)c(C#N)c1-c1cccc(O)c1 [A 43] | about 68% | about 42% | receptor selectivity: adenosine A1 receptor (adenosine A1 receptor): selective adenosine A1 receptor agonists
7 | 753% | 716% | 463% | – | 183% | 108% | 67% | – | – | – | – | – | CC(O)CSc1nc(N)c(C#N)c(-c2cccc(O)c2)c1C#N (stereo not drawn) [A 46] | – | – | –
8 | 571% | 586% | 438% | considerably weaker effect | 212% | 146% | 107% | virtually no effect | 21% | 23% | 28% | clear agonistic effect | N#Cc1c(N)nc(SCCO)c(C#N)c1-c1ccccc1 [A 104] | – | – | activity at 0.01 µM (adenosine A2b receptor; CHO cells with A2b receptor, 10^-8 M, based on control without substance): 178%; activity at 0.001 µM (adenosine A2b receptor; CHO cells with A2b receptor, 10^-9 M, based on control without substance): 100%; Concentration of intracellular cAMP in percent (adenosine A2a receptor; 10^-8 M): 107%; Concentration of intracellular cAMP in percent (adenosine A2a receptor; 10^-9 M): 104%; receptor selectivity: adenosine A1 receptor (adenosine A1 receptor): selective adenosine A1 receptor agonists
